Assay results as given in patent US10301308B2, “Azetidine derivatives for tau imaging” (Eli Lilly and Company, priority 2015, dated 2019).

Experiment: Mouse PET/CT time activity curves
Format: in vivo, CD-1 wild type mice
Description: Dynamic Micro-Positron Emission Tomography (mPET) images are obtained from CD-1 wild type mice using 3-(3-[18F]-fluoroazetidin-1-yl)-8-methylbenzo[4,5]imidazo[1,2-a]pyridine. Micro-Computed Tomography (mCT) of each subject is used as anatomical reference for image analysis. Biodistribution of the tracer in brain, muscle, bone, liver, and kidney is assessed by generating Time Activity Curves (TAC) using the fused mPET/mCT images. An INVEON multimodality scanner (Siemens, Germany) is used for mPET/mCT. All animal work is performed in accordance with the University of Sciences Institutional Animal Care & Use Committee-approved procedures.
Animals are anesthetized with 3% isoflurane/97% oxygen and are placed on the scanner bed. A short high-resolution CT scan is first performed for anatomical registration, followed by a 120-minute PET scan. During the PET scan a water heating system is placed underneath the bed to help maintain the body temperature. Within 3 minutes after the beginning of the PET acquisition, the [18F]-labeled compound 3-(3-[18F]-fluoroazetidin-1-yl)-8-methylbenzo[4,5]imidazo[1,2-a]pyridine is administered to the animals via tail vein injection (250 uCi in a total volume of 200 uL saline). A PET image is generated for each minute of the acquisition time. Uptake of the tracer is obtained by visually drawing regions of interest based on the fused PET/CT images, and the corresponding activity values are determined using the INVEON Research Workplace software (Siemens, Germany). All values are represented as percent injected dose per gram (% ID/g).
The mouse PET/CT time activity curves of 3-(4-(2-[18F]-fluoroethyl)piperidin-1-yl)-8-methoxybenzo[4,5]imidazo[1,2-a]pyridine (T821) (See FIG. 9) and of 3-(4-[18F]-fluoropiperidin-1-yl)-8-methoxybenzo[4,5]imidazo[1,2-a]pyridine (T798) (See FIG. 10) are obtained as described in Assay Example 7 (T821 and T798 are recited in US2011/0182812). […] Therefore, when imaging with T821 and/or T798, the undesirable non-tau PET signals from the skull bones could interfere with desired tau signals from the brain cortex. Thus, in addition to the lack of selectivity for T821 and T798, these compounds would further represent poor candidates for human brain tau PET tracers because of the interfering radioactivity signal from bone. […] The advantageous properties of Compound 8 are useful to provide enhanced tau PET imaging in humans. This combination of critical properties was not known and could not have been predicted from existing tau imaging compounds.

[1] = mouse PET/CT time activity curves
[2] = tail vein injection, 120-minute PET scan

Structure (SMILES): Cc1ccc2nc3cc(N4CC([18F])C4)ccn3c2c1 [Compound 8, 3-(3-[18F]-fluoroazetidin-1-yl)-8-methylbenzo[4,5]imidazo[1,2-a]pyridine]
- bone uptake of radioactivity [1]: negligible radioactivity signal in bone
- brain uptake compared to T821 and T798 [1]: significantly superior and surprising brain uptake
- bone uptake of radioactivity (mouse PET/CT time activity curves, listed as 3-(3-[18F]-Fluoroazetidin-1-yl)-8-methylbenzo[4,5]imidazo[1,2-a]pyridine): no significant uptake of radioactivity in bone tissue
- brain entry compared with [18F]AV-1451 [2]: higher % ID/g than [18F]AV-1451
- clearance from brain [2]: cleared quickly
